From BigSolDB 2.1

O=C1c2ccccc2C(=O)c2c(Cl)cccc21
solubility (mole fraction)
Conditions | 273.15 K | 278.15 K | 283.15 K | 288.15 K | 293.15 K | 298.15 K | 303.15 K | 308.15 K | 313.15 K
in 1,4-dioxane | 0.00323 | 0.00373 | 0.00412 | 0.00469 | 0.00547 | 0.00607 | 0.00691 | 0.00775 | 0.00896
in acetone | 0.00272 | 0.00308 | 0.00336 | 0.00388 | 0.00448 | 0.00531 | 0.00611 | 0.00692 | 0.00767
in ethyl acetate | 0.00335 | 0.00387 | 0.00459 | 0.00531 | 0.00605 | 0.0069 | 0.00795 | 0.00913 | 0.0106
in toluene | 0.00918 | 0.01 | 0.0112 | 0.0122 | 0.0132 | 0.0146 | 0.016 | 0.0175 | 0.019

O=C(O)c1cccc(Cl)c1C(=O)c1ccccc1
solubility (mole fraction)
Conditions | 273.15 K | 278.15 K | 283.15 K | 288.15 K | 293.15 K | 298.15 K | 303.15 K | 308.15 K | 313.15 K | 318.15 K
in 1,4-dioxane | 0.0192 | 0.021 | 0.0231 | 0.0254 | 0.0281 | 0.0309 | 0.034 | 0.0373 | 0.0413 | 0.0462
in acetone | 0.00169 | 0.00183 | 0.00204 | 0.00225 | 0.00258 | 0.00281 | 0.00308 | 0.00349 | 0.00385 | 0.00432
in ethyl acetate | 0.00545 | 0.00599 | 0.00692 | 0.00811 | 0.00959 | 0.011 | 0.0128 | 0.0146 | 0.0172 | 0.0197
